Assay results taken from ChEMBL document CHEMBL3871263, “Arylthiosemicarbazones as antileishmanial agents” (Eur J Med Chem, 2016).

Legend:
[1] = tested on: Leishmania donovani; test: Antileishmanial activity against intracellular amastigote stage of Leishmania donovani MHOM/ET/67/HU3 infected in human THP1 cells assessed as parasite growth measured after 72 hrs by luciferase reporter gene assay; assay type: functional, cell-based; conditions: MHOM/ET/67/HU3, THP-1, 72 h
[2] = Cytotoxicity against human THP1 cells assessed as reduction in cell growth measured after 72 hrs by MTT assay; assay type: toxicity, cell-based, THP-1
[3] = Cytotoxicity against human MRC5 cells assessed as reduction in cell growth measured after 72 hrs by MTT assay; assay type: toxicity, cell-based
[4] = Selectivity index, ratio of EC50 for human MRC5 cells to EC50 for intracellular Leishmania donovani MHOM/ET/67/HU3 amastigotes; assay type: toxicity, cell-based; conditions: read-out: Ratio EC50

Row | SMILES | EC50 [1] [µM] | EC50 at 72 h [2] [µM] | EC50 at 72 h [3] [µM] | selectivity ratio [4]
1 | COCOc1ccc(/C=N/NC(N)=S)c2ccccc12 | > 10 | > 200 | 126 | –
2 | NC(=S)N/N=C/c1cn(CCCc2ccccc2)c2ccccc12 | 4.1 | 30 | > 200 | > 50
3 | COc1ccc2cc(/C=N/NC(N)=S)ccc2c1 | 9.3 | 108 | > 250 | > 20
4 | CN(C)c1ccc(/C=N/N=C(/N)S)c2ccccc12 | 6.5 | > 200 | > 200 | > 30
5 | NC(=S)N/N=C/c1cc2ccccc2c2ccccc12 | > 10 | > 200 | 192 | –
6 | NC(=S)N/N=C/c1cn(Cc2ccccc2)c2ccccc12 | > 10 | 28 | 175 | –
7 | Cc1cccc(Cn2cc(/C=N/NC(N)=S)c3ccccc32)c1 | 4.3 | 32 | 23 | 5.3
8 | CCOc1ccc2cc(/C=N/NC(N)=S)ccc2c1 | 5.4 | 30 | > 200 | > 40
9 | NC(=S)N/N=C/c1c2ccccc2cc2ccccc12 | 5.3 | 67 | 45 | 8.5
10 | Cn1c(/C=N/N=C(/N)S)cc2ccccc21 | > 10 | > 200 | > 200 | –
11 | Cn1ccc2cc(/C=N/NC(N)=S)ccc21 | > 10 | > 200 | > 200 | –
12 | NC(=S)N/N=C/c1ccc(-c2ccc(/C=N/NC(N)=S)cc2)cc1 | > 10 | > 200 | > 200 | –
13 | Cc1ccc(/C=N/NC(N)=S)c2ccccc12 | 1.2 | 32 | 37 | 30.4
14 | Cn1cc(/C=N/NC(N)=S)c2ccccc21 | > 10 | > 200 | > 200 | –
15 | COCOc1c(/C=N/NC(N)=S)ccc2ccccc12 | 6.8 | 56 | 119 | 17.5
16 | COc1ccc2ccccc2c1/C=N/N=C(/N)S | > 10 | 109 | 126 | –
17 | NC(=S)N/N=C/c1cn(CC2CCCCC2)c2ccccc12 | 9 | 27 | 26 | 2.8

Row | SMILES | EC50 [1] [µM] | EC50 at 72 h [2] [µM] | EC50 at 72 h [3] [µM] | selectivity ratio [4]
18 | CCOc1ccc(/C=N/NC(N)=S)c2ccccc12 | 7.2 | > 200 | > 200 | > 30
19 | NC(=S)N/N=C/c1ccc2ccccc2c1OCc1ccccc1 | 2.6 | 28 | 25 | 9.7
20 | NC(=S)N/N=C/c1c(OCc2ccccc2)ccc2ccccc12 | 8.1 | 39 | 30 | 3.7
21 | NC(=S)N/N=C/c1ccc(OCc2ccccc2)c2ccccc12 | 1.9 | 27 | 29 | 15.2
22 | COc1ccc(/C=N/NC(N)=S)c2ccccc12 | 5 | 47 | 42 | 8.4
23 | COCOc1ccc2cc(/C=N/NC(N)=S)ccc2c1 | > 10 | > 200 | 175 | –
24 | NC(=S)N/N=C/c1ccc(F)c2ccccc12 | 0.8 | 39 | > 200 | > 250
25 | NC(=S)N/N=C/c1c(OCC2CCCCC2)ccc2ccccc12 | > 10 | 28 | 33 | –
26 | C[C@@H]1[C@H](O)[C@@H](C)/C=C/C=C/C=C/C=C/C=C/C=C/C=C/[C@H](O[C@@H]2O[C@H](C)[C@@H](O)[C@H](N)[C@@H]2O)C[C@@H]2O[C@](O)(C[C@@H](O)C[C@@H](O)[C@H](O)CC[C@@H](O)C[C@@H](O)CC(=O)O[C@H]1C)C[C@H](O)[C@H]2C(=O)O [AMPHOTERICIN B] | – | 38 | 23 | –
27 | NC(=S)N/N=C/c1ccc(OCC2CCCCC2)c2ccccc12 | 2.2 | 150 | 28.9 | 13.1
28 | COc1ccc2c(OC)ccc(/C=N/NC(N)=S)c2c1 | 9 | > 200 | > 200 | > 20
29 | CCCCn1cc(/C=N/NC(N)=S)c2cccc(C)c21 | 9 | > 200 | 31 | 3.4
30 | CCCCOc1ccc(/C=N/NC(N)=S)c2ccccc12 | 2.1 | > 200 | 41 | 19.5
31 | CCCCOc1c(/C=N/NC(N)=S)ccc2ccccc12 | 1.4 | > 200 | 86 | 61.5
32 | NC(=S)N/N=C/c1ccc2cc(OCc3ccccc3)ccc2c1 | 1.2 | 28 | 27 | 22.6
33 | CCCCOc1ccc2cc(/C=N/NC(N)=S)ccc2c1 | 1.27 | 36 | 43 | 33.2
